According to patent US20080064053A1, “Genotoxicity Testing” (priority 2003, published 2008):
Like-named read-outs stand apart in the source and are kept apart here.

Tests used:
[1] = system: RAD54 promoter-GFP reporter (pGen001); details: for GSA genotoxicity result: GenT01 yeast, overnight at 25° C., 2% DMSO diluent, no S9
[2] = system: SOS lux; details: S9 −; cited from earlier work
[3] = system: yeast strain GenT01 (FF18984); assay: GreenScreen assay (GSA), cytotoxicity: final cell density by absorbance; details: for Maximum Concentration (% v/v), suggested maximum tolerable solvent concentration: solvent in GSA test samples, toxic at higher concentrations
Protocol: The following standard protocol was followed. A 1 mM stock of the test chemical was prepared in 2% v/v aqueous DMSO, and used to make 2 identical dilution series across the microplate and a ‘control’ (see below). To achieve this, 150 microlitres of the test chemical solution were put into 2 microplate wells. Each sample was serially diluted by transferring 75 microlitres into 75 microlitres of 2% DMSO, mixing, and then taking 75 microlitres out and into the next well. This produced 9 serial dilutions of 75 microlitres each.
75 microlitres of the yeast suspension were added to each well of the diluted chemical: GenT01 to one series and GenC01 to the second, and to appropriate standards and controls. After the plates were filled, they were sealed using either a gas permeable membrane (Breath-easy, Diversified Biotech, USA) or a plastic lid, and then incubated without shaking, overnight at 25° C.
Following overnight incubation, fluorescence and absorbance data were collected from the microplates. […] Absorbance was measured through a 620 nm filter in both instruments. […] Fluorescence data were divided by absorbance data to give ‘brightness units’, the measure of average GFP induction per cell. […] In this way, one can distinguish between a small number of highly fluorescent cells and a large number of weakly fluorescent cells. In order to correct for induced cellular autofluorescence and intrinsic compound fluorescence, the brightness values for the GenC01 strain were subtracted from those of GenT01. This makes visual assessment of the data more reliable.
The cytotoxicity threshold is set at 80% of the cell density reached by the untreated control cells.
Table 12 lists chemicals/solvents that are often used with test samples, to promote dissolution etc. […] If these chemicals are used to dissolve compound stock solutions, they should also be included in the diluent used to make the compound dilution series. […] Interference of DMSO, a free radical scavenger, in the recombinogenic properties of several oxidising agents has previously been reported.

[4] = system: bacteria; details: cited from earlier work
[5] = in vivo; cited from earlier work
[6] = system: SOS umuC; details: cited from earlier work
[7] = other genotoxicity tests and cancer studies; cited from earlier work
[8] = system: RNR3 regulatory element-GFP reporter; assay: RNR3-GFP reporter microplate assay (pGenRNR3); assay type: cell-based, Saccharomyces cerevisiae; details: yeast test strain transformed with pGenRNR3
From the text: In addition to the RAD54 vectors described in the previous Examples, the inventors constructed an FF18984 reporter strain containing a replicative plasmid harbouring an RNR regulatory element. The vectors pGenRNR2 or pGenRNR3 are shown in FIGS. 24 and 25, respectively, and contain the upstream non-coding DNA sequence of the RNR2 gene or RNR3 gene fused to the yeast-enhanced Aequorea victoria GFP gene. A control FF18984 strain containing an identical plasmid except that 2 base pairs have been removed at the start of the GFP gene, such that no GFP is made, was also examined.
In order to test the brightness of the reporter for RNR3 constructs, similar methodology was used as for RAD54 constructs, as described in the previous Examples, but using instead pGENRNR3.

[9] = requires S9 metabolic activation

Nc1ccc2cc3ccccc3cc2c1 [2-aminoanthracene]
GSA genotoxicity result [1]: negative

c1ccc2c(c1)cc1ccc3cccc4ccc2c1c34 [BENZO[A]PYRENE, benzo[a]pyrene]
GSA genotoxicity result [1]: positive

Nc1ccc(Oc2ccc(N)cc2)cc1 [4,4-oxydianiline]
GSA genotoxicity result [1]: negative

CN(C)CCN(Cc1cccs1)c1ccccn1 [methapyraline]
GSA genotoxicity result [1]: induced

C[n+]1ccc(-c2cc[n+](C)cc2)cc1 [methyl viologen]
GSA genotoxicity result [1]: induced

OO [HYDROGEN PEROXIDE]
GSA (M), lowest effective concentration (LEC) ([1]; Saccharomyces cerevisiae): 0.002 M | SOS LUX ASSAY (M), LEC [2]: 5.9e-05 M

bleomycin
GSA genotoxicity result [1]: induced

COc1cc([C@@H]2c3cc4c(cc3[C@@H](O[C@@H]3O[C@@H]5CO[C@@H](C)O[C@H]5[C@H](O)[C@H]3O)[C@H]3COC(=O)[C@H]23)OCO4)cc(OC)c1O [etoposide]
GSA genotoxicity result [1]: responds

C1CCOC1 [Tetrahydrofuran]
Maximum Concentration (% v/v), suggested maximum tolerable solvent concentration [3]: 2 % v/v

Nc1cc([N+](=O)[O-])ccc1O [2-amino-4-nitrophenol]
Ames test result [4, 9]: positive | GSA genotoxicity result [1]: positive

COc1cc2c(c(OC)c1OC)-c1ccc(OC)c(=O)cc1[C@@H](NC(C)=O)CC2 [colchicine]
GSA genotoxicity result [1]: responds

Nc1nc[nH]n1 [3-amino-1,2,4-triazole]
cancer data / carcinogenicity [5]: positive | GSA genotoxicity result [1]: positive

CC[n+]1c(-c2ccccc2)c2cc(N)ccc2c2ccc(N)cc21 [ethidium bromide]
Ames test result [4, 9]: positive

ClC(Cl)(Cl)Cl [Carbon tetrachloride]
Maximum Concentration (% v/v), suggested maximum tolerable solvent concentration [3]: 2 % v/v

proflavin hemisulfate
Ames test result [4, 9]: positive | GSA genotoxicity result [1]: positive

O=Cc1ccccc1 [Benzaldehyde]
GSA cytotoxicity result ([3]; GenT01 yeast, overnight at 25° C.): cytotoxic

N.N.[Cl][Pt][Cl] [CISPLATIN, cisplatin]
SOS UMUC ASSAY (M), LEC ([6]; S9 −): 9e-07 M | GSA (M), lowest effective concentration (LEC) ([1]; S9 −): 6.2e-05 M

tritolyl phosphate
corresponding data from other tests [7]: no corresponding positive data

NC(N)=S [thiourea]
cancer data / carcinogenicity [5]: carcinogens | Ames test result [4]: not detectable

Clc1ccc(COC(Cn2ccnc2)c2ccc(Cl)cc2Cl)cc1 (stereo not shown) [econazole]
GSA genotoxicity result [1]: responds

C=CCc1ccc2c(c1)OCO2 [safrole]
cancer data / carcinogenicity [5]: carcinogens | Ames test result [4]: not detectable

CN/C(=N/CCSCc1nc[nH]c1C)NC#N [cimetidine]
GSA genotoxicity result [1]: positive | corresponding data from other tests [7]: no corresponding positive data

CO [Methanol]
Maximum Concentration (% v/v), suggested maximum tolerable solvent concentration [3]: 2 % v/v

CCO [Ethanol]
Maximum Concentration (% v/v), suggested maximum tolerable solvent concentration [3]: 2 % v/v

[N-]=[N+]=[N-] [SODIUM AZIDE]
SOS UMUC ASSAY (M), LEC [6]: 0.0054 M | GSA (M), lowest effective concentration (LEC) ([1]; Saccharomyces cerevisiae): 1e-05 M

phleomycin
GSA genotoxicity result [1]: induced

CC(O)CCl (stereo not shown) [1-Chloro-2-propanol]
Maximum Concentration (% v/v), suggested maximum tolerable solvent concentration [3]: 2 % v/v

CCCCC(CC)COC(=O)c1ccccc1C(=O)OCC(CC)CCCC (stereo not shown) [phthalic acid bis(2-ethylhexyl) ester]
GSA genotoxicity result [1]: induced

CNNC [1,2-dimethylhydrazine]
fluorescence induction by the reporter [8]: increases with increasing concentration | GSA genotoxicity result [1]: induced

CCOS(C)(=O)=O [EMS, Ethyl methanesulfonate]
fluorescence induction by the reporter [8]: increases with increasing concentration

CCn1cc(C(=O)O)c(=O)c2ccc(C)nc21 [NALIDIXIC ACID]
GSA (M), lowest effective concentration (LEC) ([1]; S9 −): 1.6e-06 M

Cc1c2ccncc2c(C)c2c1[nH]c1ccccc12 [ellipticine]
GSA genotoxicity result [1]: responds

C[S+](C)[O-] [Dimethylsulfoxide]
Maximum Concentration (% v/v), suggested maximum tolerable solvent concentration [3]: 5 % v/v

CC(=O)Nc1ccc2c(c1)Cc1ccccc1-2 [2-acetamidofluorene]
GSA genotoxicity result [1]: negative

CO[C@@]12[C@H](COC(N)=O)C3=C(C(=O)C(C)=C(N)C3=O)N1C[C@@H]1N[C@@H]12 [MITOMYCIN C, mitomycin C]
SOS UMUC ASSAY (M), LEC ([6]; S9 −): 1e-08 M | SOS LUX ASSAY (M), LEC [2]: 4.7e-08 M

Cc1cc2nc3ccc(N(C)C)cc3nc2cc1N.Cl [Neutral Red]
Ames test result [4]: positive | GSA genotoxicity result [1]: positive

Nc1ccccc1 [aniline]
cancer data / carcinogenicity [5]: carcinogens | Ames test result [4]: not detectable | Ames test result ([4]; with and without S9): negative | GSA genotoxicity result [1]: negative

Nc1c2ccccc2nc2ccccc12 [9-aminoacridine]
GSA genotoxicity result [1]: negative

CCOC(N)=O [urethane]
cancer data / carcinogenicity [5]: carcinogens | Ames test result [4]: not detectable
